Measured values reported in paper PMC2504292 (Nucleic Acids Research, 2008).

T1: PARN RRM (cap-binding domain of mouse PARN, residues 430-516) (Mus musculus, UniProt Q8VDG3)
T1 sequence (Q8VDG3 430-516): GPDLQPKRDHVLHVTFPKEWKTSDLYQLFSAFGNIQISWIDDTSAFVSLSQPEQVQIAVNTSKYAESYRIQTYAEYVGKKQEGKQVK

T2: PARN RRM (cap-binding domain), NMR/ITC construct (mouse, UniProt Q8VDG3 430-516)
T2 sequence: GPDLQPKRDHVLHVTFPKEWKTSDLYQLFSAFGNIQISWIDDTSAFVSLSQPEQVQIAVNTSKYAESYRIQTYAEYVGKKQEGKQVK


Experiments:
[1] = target: T1, PARN RRM (cap-binding domain of mouse PARN, residues 430-516); assay: isothermal titration calorimetry
[2] = target: T2, PARN RRM (cap-binding domain), NMR/ITC …; assay: NMR HSQC titration

Kd [1]	Molecule	binding result [2]
~45 µM	C[n+]1cn([C@@H]2O[C@H](COP(=O)(O)OP(=O)(O)OP(=O)(O)OC[C@H]3O[C@@H](n4cnc5c(=O)[nH]c(N)nc54)[C@H](O)[C@@H]3O)[C@@H](O)[C@H]2O)c2nc(N)[nH]c(=O)c21 [m7GpppG]	–
–	AAAAAAAAAA (ssRNA) [A10 10-mer poly(A)]	no binding
